Patent US9808470B2, “Estrogenic components for use in the treatment of neurological disorders” (UNIVERSITE DE LIEGE, priority 2012, dated 2017)

Tests used:
Assay type in all cases: in vivo
[1] = Ex.2 neonatal HIE rat model, pre-treatment: body weight
Description: Sprague-Dawley pregnant rats were obtained from Janvier (France). After delivery newborn rat pups were housed with their dams and reared normally at room temperature (25° C.) under a 12-hour light-dark cycle. All experimental protocols were approved by the University of Liege Ethical Committee. All efforts were made to minimize animal suffering.
Estetrol (E4) was dissolved in saline solution at different concentrations and an equal volume (5 μl/g) of the solution was injected intraperitoneally into the pups from the E4 group(s). Rat pups from the Vehicle group were intraperitoneally injected a saline solution. Rat pups from the Sham group were not injected at all.
Ischemia was produced by surgery encompassing left common carotid artery double ligation and cut; hypoxia was produced by the inhalation of 11%-8% of oxygen balanced by nitrogen at decreased concentration of oxygen for 20 minutes, followed by inhalation of 8% oxygen and 92% nitrogen at constant concentration for 35 minutes.
After delivery, newborn rat pups were assigned to one of the following 4 groups: Sham group, Vehicle group, E4 5 mg/kg/per day group and E4 50 mg/kg/per day group. From day 4 to day 7 inclusive, rat pups were injected intraperitoneally either vehicle (Vehicle group) or E4 (5 mg/kg or 50 mg/kg in accordance to the group assignment) or not injected at all (Sham group). At day 7, 30 minutes after last injection, animals from Vehicle and E4 (5 mg/kg or 50 mg/kg) groups passed through surgery encompassing left common carotid artery double ligation and cut, followed by hypoxia produced by the inhalation of 11%-8% of oxygen balanced by nitrogen at decreased concentration for 20 minutes, followed by inhalation of 8% oxygen and 92% nitrogen at constant concentration for 35 minutes. The Sham group went through similar procedures without left common carotid artery ligation and hypoxia. All the manipulations were performed at 37° C. Rat pups recovered with their dams until being sacrificed at postnatal day 14. […]

[2] = Ex.4 therapeutic HIE rat model: rectal temperature; conditions: E4 1, 5, 10, 50 mg/kg single ip dose after HI at PND7; 0, 2, 4 h after hypoxia
Description: The rectal temperature of the rat pups was measured with a multipurpose thermometer (BAT-10R, Physitemp Instruments Inc., Clifton, N.J., US) along with a rectal probe (RET-4, BioMedical Instruments, Zollnitz, Germany) at 0, 2, and 4 hours after exposure to hypoxic insult. To keep the variability of the temperature low, measurements of rectal temperature were made in a 25° C. room 15 min after removal of the pups from the nest (except the 1st post-hypoxic measurement which was done immediately). It has been shown that the rectal temperature corresponds very well to the brain core temperature (Thoresen et al. 1996. Arch Dis Child Fetal Neonatal 74: F3-F9, Yager et al. 1993. Pediatr Res 34: 525-529).
(§1) To study the therapeutic effect of estetrol, newborn rat pups were assigned to one of the following 6 groups at postnatal day 7: sham group (n=29), vehicle group (n=20), 1 mg/kg E4 group (n=16), 5 mg/kg E4 group (n=19), 10 mg/kg day E4 (n=17) and 50 mg/kg day E4 group (n=15). At postnatal day 7 animals were anesthetized with isoflurane (induction, 3.0%; maintenance, 1.5%), and the rat pups from vehicle and E4 groups passed through surgery encompassing left common carotid artery double ligation and cut. After surgery, the pups were returned to their dams and allowed to recover for 1 hour. The pups were then placed in a humidified hypoxic in vivo cabinet (CoyLab). […]

S100B = test: Ex.4 therapeutic HIE rat model: blood serum S100B ELISA; conditions: estetrol treated animals (1, 5, 10, 50 mg/kg single ip dose after HI); PND14; vs vehicle
Description: Blood was withdrawn, centrifuged and the serum samples were stored at −80° C.
ELISAs for detecting the brain damage markers S100B protein (Catalog# CSB-E08066r, Cusabio Biotech Co., LTD, China), and glial fibrillary acidic protein (GFAP) (Catalog# E90068Ra, Uscn Life sciences Inc., China) in blood serum samples were performed according to the manufacturers' recommendations.
as §1, with “(CoyLab). Hypoxia was produced by the inhalation of 11%-8% of oxygen balanced by nitrogen at decreased concentration of oxygen for 20 minutes, followed by inhalation of 8% oxygen and 92% nitrogen at constant concentration for 35 minutes. All the manipulations were performed at 37° C.” for “(CoyLab).”

[3] = system: Myelin Basic Protein (MBP); test: Ex.7 therapeutic HIE rat model: myelin basic protein staining; conditions: all the E4 treated groups, vs vehicle
Description: FIG. 22. Myelin Basic Protein (MBP) staining of brain coronal sections in rat pups that were treated with estetrol. Brains were removed upon sacrifice at postnatal day 14 and paraformaldehyde-fixed and paraffin-embedded brain samples were coronally sectioned at the hippocampus region. The sections were processed for detection of white matter damage through immunohistological staining with anti-MBP antibody. (A-F) MBP staining of brain coronal sections (scale bar: 2 mm) is shown. (G-L) MBP staining of cingulum of the left hemisphere is (scale bar: 2 mm) is shown. (M) The ratio of the MBP positive areas OD ratio was calculated as the MBP positive area OD of the ipsilateral hemisphere divided by the MBP positive area OD of the contralateral hemisphere. 10 samples from each study group were analyzed. The ratio of the MBP positive area OD in the Sham group was considered by default as 1.0.
The sections were processed for immunohistochemical detection of neuronal myelin basic protein disruption. For antigen retrieval, the sections were heated in 10 mmol/L citrate buffer (pH 6.0) at 100° C. for 10 min. […] 10 samples from each study group of both study designs were analyzed with the aid of an image scanner (Nanozoomer Virtual Microscopy, Hamamatsu, Tokyo, Japan) and ImageJ software (NIH, USA). The MBP positive areas optical densities in the ipsilateral and contralateral hemispheres were measured. […]

C[C@]12CC[C@@H]3c4ccc(O)cc4CC[C@H]3[C@@H]1[C@@H](O)[C@@H](O)[C@@H]2O [E4, 1,3,5(10)-estratrien-3,15α,16α,17β-tetrol]
body weight ([1]; E4 5 mg/kg ip day 4-7 before HI, day 8, vs Sham): sham operated group had significantly higher body weight
body weight ([1]; E4 5 mg/kg ip day 4-7 before HI, post-operative days 13 and 14, vs vehicle): significantly higher body weight than vehicle treated animals
body weight ([1]; E4 50 mg/kg ip day 4-7 before HI, day 10, vs Sham): sham operated group had significantly higher body weight
rectal temperature [2]: did not affect the body temperature
expression of S100B protein in blood serum (S100B): significantly lower expression
ratio of the MBP-positive area OD [3]: significantly higher
